#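 Tested at 5 concentrations; 48 h exposure; 96-well plates; endpoints linearly interpolated, else capped at highest concentration. TGI denotes the concentration required for complete inhibition of growth.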
# What was measured:
# Assay in all cases: growth of human tumour cells (NCI), 48 h
# HCC-2998 colon = test system: HCC-2998 colon
# MOLT-4 leukemia = test system: MOLT-4 leukemia
# SK-MEL-5 melanoma = test system: SK-MEL-5 melanoma
# NCI-H522 lung = test system: NCI-H522 lung
# MDA-MB-435 = test system: MDA-MB-435
# SK-OV-3 ovarian = test system: SK-OV-3 ovarian
# UO-31 renal = test system: UO-31 renal
# PC-3 prostate = test system: PC-3 prostate
# SF-539 CNS = test system: SF-539 CNS
# SK-MEL-2 melanoma = test system: SK-MEL-2 melanoma
# SNB-19 CNS = test system: SNB-19 CNS
# MCF7 breast = test system: MCF7 breast
# HL-60(TB) leukemia = test system: HL-60(TB) leukemia
# BT-549 breast = test system: BT-549 breast
# K-562 leukemia = test system: K-562 leukemia
# LOX IMVI melanoma = test system: LOX IMVI melanoma
# CAKI-1 renal = test system: CAKI-1 renal
# OVCAR-3 ovarian = test system: OVCAR-3 ovarian
# MDA-N = test system: MDA-N
# M14 melanoma = test system: M14 melanoma
# CCRF-CEM leukemia = test system: CCRF-CEM leukemia
# 786-0 renal = test system: 786-0 renal
# SN12C renal = test system: SN12C renal
# NCI/ADR-RES ovarian = test system: NCI/ADR-RES ovarian
# T-47D breast = test system: T-47D breast
# HS 578T breast = test system: HS 578T breast
# UACC-257 melanoma = test system: UACC-257 melanoma
# NCI-H23 lung = test system: NCI-H23 lung
# DU-145 prostate = test system: DU-145 prostate
# RXF 393 renal = test system: RXF 393 renal
# ACHN renal = test system: ACHN renal
# A498 renal = test system: A498 renal
# SK-MEL-28 melanoma = test system: SK-MEL-28 melanoma
# TK-10 renal = test system: TK-10 renal
# COLO 205 colon = test system: COLO 205 colon
# EKVX NSCLC = test system: EKVX NSCLC
# RPMI-8226 leukemia = test system: RPMI-8226 leukemia
# OVCAR-5 ovarian = test system: OVCAR-5 ovarian
# HCT-116 colon = test system: HCT-116 colon
# UACC-62 melanoma = test system: UACC-62 melanoma
# HOP-62 NSCLC = test system: HOP-62 NSCLC
# U251 CNS = test system: U251 CNS
# HT29 colon = test system: HT29 colon
# HOP-92 NSCLC = test system: HOP-92 NSCLC
# SR leukemia = test system: SR leukemia
# IGROV1 ovarian = test system: IGROV1 ovarian
# MDA-MB-231 breast = test system: MDA-MB-231 breast
# NCI-H226 lung = test system: NCI-H226 lung
# A549 NSCLC = test system: A549 NSCLC
# SF-295 CNS = test system: SF-295 CNS
# KM12 colon = test system: KM12 colon
# NCI-H460 lung = test system: NCI-H460 lung
# OVCAR-8 ovarian = test system: OVCAR-8 ovarian
# SW-620 colon = test system: SW-620 colon
# MALME-3M melanoma = test system: MALME-3M melanoma
# OVCAR-4 ovarian = test system: OVCAR-4 ovarian
# SF-268 CNS = test system: SF-268 CNS
# HCT-15 colon = test system: HCT-15 colon
# SNB-75 CNS = test system: SNB-75 CNS
smiles,measurement,setting,value
C=CCCCCCCCCCOC1C=CC(OC(C)=O)C(COC(C)=O)O1 (configuration not stated),TGI,HCC-2998 colon,> 100 µM
same,TGI,MOLT-4 leukemia,86 µM
same,TGI,SK-MEL-5 melanoma,> 100 µM
same,TGI,NCI-H522 lung,> 100 µM
same,TGI,MDA-MB-435,> 100 µM
same,TGI,SK-OV-3 ovarian,> 100 µM
same,TGI,UO-31 renal,> 100 µM
same,TGI,PC-3 prostate,> 100 µM
same,TGI,SF-539 CNS,> 100 µM
same,TGI,SK-MEL-2 melanoma,> 100 µM
same,TGI,SNB-19 CNS,> 100 µM
same,TGI,MCF7 breast,> 100 µM
same,TGI,HL-60(TB) leukemia,> 100 µM
same,TGI,BT-549 breast,> 100 µM
same,TGI,K-562 leukemia,17.4 µM
same,TGI,LOX IMVI melanoma,> 100 µM
same,TGI,CAKI-1 renal,> 100 µM
same,TGI,OVCAR-3 ovarian,> 100 µM
same,TGI,MDA-N,> 100 µM
same,TGI,M14 melanoma,88.9 µM
same,TGI,CCRF-CEM leukemia,> 100 µM
same,TGI,786-0 renal,> 100 µM
same,TGI,SN12C renal,> 100 µM
same,TGI,NCI/ADR-RES ovarian,> 100 µM
same,TGI,T-47D breast,> 100 µM
same,TGI,HS 578T breast,63 µM
same,TGI,UACC-257 melanoma,95.8 µM
same,TGI,NCI-H23 lung,> 100 µM
same,TGI,DU-145 prostate,> 100 µM
same,TGI,RXF 393 renal,> 100 µM
same,TGI,ACHN renal,> 100 µM
same,TGI,A498 renal,> 100 µM
same,TGI,SK-MEL-28 melanoma,> 100 µM
same,TGI,TK-10 renal,> 100 µM
same,TGI,COLO 205 colon,> 100 µM
same,TGI,EKVX NSCLC,> 100 µM
same,TGI,RPMI-8226 leukemia,84.6 µM
same,TGI,OVCAR-5 ovarian,> 100 µM
same,TGI,HCT-116 colon,> 100 µM
same,TGI,UACC-62 melanoma,> 100 µM
same,TGI,HOP-62 NSCLC,> 100 µM
same,TGI,U251 CNS,> 100 µM
same,TGI,HT29 colon,48.1 µM
same,TGI,HOP-92 NSCLC,> 100 µM
same,TGI,SR leukemia,> 100 µM
same,TGI,IGROV1 ovarian,> 100 µM
same,TGI,MDA-MB-231 breast,> 100 µM
same,TGI,NCI-H226 lung,> 100 µM
same,TGI,A549 NSCLC,> 100 µM
same,TGI,SF-295 CNS,> 100 µM
same,TGI,KM12 colon,> 100 µM
same,TGI,NCI-H460 lung,> 100 µM
same,TGI,OVCAR-8 ovarian,43.4 µM
same,TGI,SW-620 colon,> 100 µM
same,TGI,MALME-3M melanoma,> 100 µM
same,TGI,OVCAR-4 ovarian,> 100 µM
same,TGI,SF-268 CNS,> 100 µM
same,TGI,HCT-15 colon,> 100 µM
CC12CCC(C(Nc3ccccn3)C1=O)C2(C)C (configuration not stated),TGI,HCC-2998 colon,> 100 µM
same,TGI,MOLT-4 leukemia,> 100 µM
same,TGI,SK-MEL-5 melanoma,> 100 µM
same,TGI,NCI-H522 lung,> 100 µM
same,TGI,MDA-MB-435,> 100 µM
same,TGI,SK-OV-3 ovarian,> 100 µM
same,TGI,UO-31 renal,> 100 µM
same,TGI,PC-3 prostate,> 100 µM
same,TGI,SF-539 CNS,> 100 µM
same,TGI,SK-MEL-2 melanoma,> 100 µM
same,TGI,SNB-19 CNS,> 100 µM
same,TGI,MCF7 breast,> 100 µM
same,TGI,HL-60(TB) leukemia,> 100 µM
same,TGI,BT-549 breast,> 100 µM
same,TGI,K-562 leukemia,> 100 µM
same,TGI,LOX IMVI melanoma,> 100 µM
same,TGI,CAKI-1 renal,> 100 µM
same,TGI,OVCAR-3 ovarian,> 100 µM
same,TGI,MDA-N,> 100 µM
same,TGI,M14 melanoma,> 100 µM
same,TGI,CCRF-CEM leukemia,> 100 µM
same,TGI,786-0 renal,> 100 µM
same,TGI,SN12C renal,> 100 µM
same,TGI,NCI/ADR-RES ovarian,> 100 µM
same,TGI,T-47D breast,> 100 µM
same,TGI,HS 578T breast,> 100 µM
same,TGI,UACC-257 melanoma,> 100 µM
same,TGI,NCI-H23 lung,> 100 µM
same,TGI,DU-145 prostate,> 100 µM
same,TGI,SNB-75 CNS,> 100 µM
same,TGI,RXF 393 renal,> 100 µM
same,TGI,ACHN renal,> 100 µM
same,TGI,A498 renal,> 100 µM
same,TGI,SK-MEL-28 melanoma,> 100 µM
same,TGI,TK-10 renal,> 100 µM
same,TGI,COLO 205 colon,> 100 µM
same,TGI,EKVX NSCLC,> 100 µM
same,TGI,RPMI-8226 leukemia,> 100 µM
same,TGI,OVCAR-5 ovarian,> 100 µM
same,TGI,HCT-116 colon,> 100 µM
same,TGI,UACC-62 melanoma,> 100 µM
same,TGI,HOP-62 NSCLC,> 100 µM
same,TGI,U251 CNS,> 100 µM
same,TGI,HT29 colon,> 100 µM
same,TGI,HOP-92 NSCLC,> 100 µM
same,TGI,SR leukemia,> 100 µM
same,TGI,IGROV1 ovarian,> 100 µM
same,TGI,MDA-MB-231 breast,> 100 µM
same,TGI,NCI-H226 lung,> 100 µM
same,TGI,A549 NSCLC,> 100 µM
same,TGI,SF-295 CNS,> 100 µM
same,TGI,KM12 colon,> 100 µM
same,TGI,NCI-H460 lung,> 100 µM
same,TGI,OVCAR-8 ovarian,> 100 µM
same,TGI,SW-620 colon,> 100 µM
same,TGI,MALME-3M melanoma,> 100 µM
same,TGI,OVCAR-4 ovarian,> 100 µM
same,TGI,SF-268 CNS,> 100 µM
same,TGI,HCT-15 colon,> 100 µM

# — PubChem BioAssay (NCI)
